In a compilation of properties of binary mixtures (doi:10.1016/j.jct.2016.09.024):

Experiment: xn = mol fraction of the nth substance listed
Conditions: 100 kPa

CCO + CCCC[N+](C)(C)C.O=S(=O)([N-]S(=O)(=O)C(F)(F)F)C(F)(F)F
x1 = 1
Conditions	speed of sound [m/s]
293.15 K	1160.4
308.15 K	1108.9

CCO + CCCC[N+](C)(CCCC)CCCC.O=S(=O)([N-]S(=O)(=O)C(F)(F)F)C(F)(F)F
x1 = 1
Conditions	speed of sound [m/s]
293.15 K	1160.4
298.15 K	1143.3
303.15 K	1126.1

CCCC[N+](C)(CCCC)CCCC.O=S(=O)([N-]S(=O)(=O)C(F)(F)F)C(F)(F)F + CCO
speed of sound [m/s]
Conditions	293.15 K	298.15 K	303.15 K	308.15 K
x1 = 0.0149	–	1146.8	1130.4	1114.1
x2 = 0	1291.7	1276	1261.1	–
x2 = 0.0636	–	1271.9	1257.5	1244.1
x2 = 0.0711	1285.8	1272.2	–	1244.1
x2 = 0.1235	–	1268.1	1254.2	–
x2 = 0.2012	1277.4	1263.2	1249.4	1236.2
x2 = 0.3995	1262.3	–	1235.2	1221.9
x2 = 0.6009	1241.4	1227.8	1214.4	1200.8
x2 = 0.7187	1224.1	1210.4	1196.3	1182.7
x2 = 0.8118	1205.7	1192	–	1163.3
x2 = 0.8605	1194.3	–	–	1151.2
x2 = 0.9076	1181.8	1166.7	1151.6	1136.7
x2 = 0.93	1175.6	1160.2	–	1129.9
x2 = 0.95	1170.7	–	–	1123.5
x2 = 0.96	–	1152.3	–	1120.9
x2 = 0.9702	1165.7	–	1133.6	–

CCCC[N+](C)(C)C.O=S(=O)([N-]S(=O)(=O)C(F)(F)F)C(F)(F)F + CCO
speed of sound [m/s]
Conditions	293.15 K	298.15 K	303.15 K	308.15 K
x1 = 0.01	1160.4	–	1126.8	1110.1
x2 = 0	1239.5	1228.9	1218.3	1208.1
x2 = 0.0605	1237.5	1226.8	1216.1	1205.9
x2 = 0.101	1235.4	1224.6	1214	–
x2 = 0.1991	–	1220.2	1209.5	1199
x2 = 0.3	1225.3	1214.6	–	1193.1
x2 = 0.4096	1218.1	1206.9	1195.8	1185
x2 = 0.4998	1210.5	1199.2	1187.9	–
x2 = 0.5996	1200.8	1189.1	–	1166.4
x2 = 0.6504	1195.1	1183.1	–	1159.6
x2 = 0.7501	–	1169.2	1156.6	1144.4
x2 = 0.8514	1166.7	1152.8	–	1126.2
x2 = 0.88	1163.4	–	1134.6	1117
x2 = 0.92	1158.1	1143.6	1129.8	1114.5
x2 = 0.93	1158	1142.8	1128	1113.2
x2 = 0.94	1157.5	1142.1	1127	1112.2
x2 = 0.9609	1157.2	1141.7	1126	1110.5
x2 = 0.97	–	1142.1	–	1110.4
x2 = 0.98	–	1142.2	1125.9	1109.9

C[N+](C)(C)CCO.O=S(=O)([N-]S(=O)(=O)C(F)(F)F)C(F)(F)F + CCO
speed of sound [m/s]
Conditions	293.15 K	298.15 K	303.15 K	308.15 K
x2 = 0.7051	1221.8	1207.6	1195.3	1183.5
x2 = 0.801	–	1183.2	1170	1157.2
x2 = 0.9002	1172.1	1156.6	1142.5	1128.2
x2 = 0.9601	1162.4	1145.9	1130.3	1115

CCO + C[N+](C)(C)CCO.O=S(=O)([N-]S(=O)(=O)C(F)(F)F)C(F)(F)F
x1 = 1
Conditions	speed of sound [m/s]
303.15 K	1126.1
308.15 K	1108.9
